# Measured values taken from US9364545B2, “Thermosensitive injectable hydrogel for drug delivery” (Taipei Medical University, priority 2014, dated 2016).
# Columns and labels:
# [1] = Body weight and death as indication of systemic toxicity; type: in vivo, Balb/c male mice; details: after intratumoral injection, during the experiment
# Experimental: (§1) The suspension of […] (1.0×10^6 cells/100 μl) was injected subcutaneously in the right flank of Balb/c male mice using 26 G needles. After 7 days tumor size reached 100-300 mm^3. The […] were randomly divided into three groups (n=3) and received following treatments. Group 1 mice were treated with an intratumoral injection of sterile PBS as control group; Group 2, mice received an intratumoral injection of Dox-HA hydrogel; Group 3, mice received an intratumoral injection of free Dox solution (4 mg/kg in 0.1 mL). The mice were weighed and tumor size was measured using a capliper for 10 days post intratumoral injection. The tumor volume (V) was calculated with the following formula V=[length×(width)^2]/2
# We also monitored change in body weight during the experiment as an indication of systemic toxicity.
# [2] = system: C26 tumor; assay: Tumor inhibition study, intratumoral injection; type: in vivo, Balb/c male mice
# Experimental: as §1
# On day 10, the mice were sacrificed and the tumor masses harvested, weighted, and photographed. Tumor inhibition rate was calculated using the equation. Tumor inhibition rate (%)=(Wc−Wt)/Wc where Wc is the weight of the tumor in the control group and Wt is the weight of the tumor in the test formulation group (L. Chen, X. Sha, X. Jiang, Y. Chen, Q. Ren, X. Fang, Pluronic P105/F127 mixed micelles for the delivery of docetaxel against Taxol-resistant non-small cell lung cancer: optimization and in vitro, in vivo evaluation, International journal of nanomedicine, 8 (2013) 73-84).
# The in vivo antitumor efficacy of DHMF-15 hydrogel formulation was evaluated in the C26 tumor-bearing mice model. Mice were randomized into […] when the tumor size reached 100 mm^3. Three groups of mice received intratumoral injection of PBS, DHMF-15 hydrogel, free Dox solution, DMF-15 hydrogel, and DF-15 hydrogel respectively. […] PBS treatments had no substantial effect on C26 tumor growth, and the tumor volumes increased rapidly. After administration for 10 days, the average tumor volume in the PBS treated mice had reached over 1000 mm^3. […] Ranked from high to low inhibition efficacy, the formulations are ordered as follows: DHMF-15, free Dox solution, DMF-15, DF-15, PBS.
# [3] = system: C26 colon carcinoma cells; assay: Cell viability, MTT assay; type: cell-based; details: 24 h incubation
# Experimental: (§2) C26 colon carcinoma cells and HT29 human colon cancer cells were cultured with RPMI-1640 with 10% fetal bovine serum and 10% penicillinstreptomycin. MCF-7 human breast cancer cells MEM were cultured with Eagle's MEM with 10% fetal bovine serum and 10% penicillinstreptomycin. Cells were seeded at a density of 5×10^4 cells per well in 24-well plates. After 24 hours of incubation at 37° C. with 5% CO2, the medium was replaced with new medium containing Dox formulation. After 24 hours incubation, cell survival was then measured using tetrazolium salt MTT assay. One hundred microliters of MTT (6 mg/mL) was added to each well for 4 hours. The medium was removed after […] incubation and then 200 μl DMSO was added to dissolve any purple formazan crystal formed. Remove the solvent was removed and dried in an oven at 50° C. for 2 hours. Cell viability was measured by ELISA reader and absorbance set at 520 nm.
# [4] = system: HT29 human colon cancer cells; assay: Cell viability, MTT assay; type: cell-based; details: 24 h incubation
# Experimental: as §2
# [5] = system: MCF-7 human breast cancer cells; assay: Cell viability, MTT assay; type: cell-based; details: MCF7 cells, 24 h incubation
# Experimental: as §2
structure (smiles),measurement,setting,value
"COc1cccc2c1C(=O)c1c(O)c3c(c(O)c1C2=O)C[C@@](O)(C(=O)CO)C[C@@H]3O[C@H]1C[C@H](N)[C@H](O)[C@H](C)O1.Cl [free Dox solution, Doxorubicin Hydrochloride]",Toxicity-induced death and body weight loss,[1],neither toxicity-induced death nor serious body weight loss
same,Tumor size as % of that in the PBS control group,"[2]; after 10 days, intratumoral injection",42.45%
same,Tumor weight compared to the control group,[2]; day 10,significantly reduced
same,Tumor inhibition rate,"[2]; excised tumor weight on day 10, (Wc−Wt)/Wc",80.65%
same,Cytotoxicity (cell viability),[3],potent cytotoxicity
same,Cytotoxicity (cell viability),[4],potent cytotoxicity
same,Cytotoxicity (cell viability),[5],potent cytotoxicity
